For this test, the system named is Nucleic Acid. The experiment in a line: DNA binding/cleaving affinity was determined; Active. In kind it is nucleic-acid assay.

Active and inactive are the calls of the source. The calls are words filed in the database; no cut-off is given here.

Regarding “Complex of [SalenMn(III)]+ (Salen=N,N'-ethylenebis(salicylideneaminato))”, the outcome was Active.
The same measure for “[TMPPMn(III)] 5+ (TMPP=meso-tetrakis(4-N-methylpyridiniumyl)porphyrinato))”: “Active”.
